ChEMBL document CHEMBL1201862, “PubChem BioAssay data set” (2004)
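48-hour exposure; five concentrations; linearly interpolated endpoints. GI50 is the concentration that inhibits growth by half.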 Calls of active or inactive are those of the source. No stated cut-off is given here; in the data, active = GI50 up to about 1.1 µM and inactive = higher. Where a SMILES comes first, the peptide text is derived from it. [ ]: non-standard residue; d: D form. The star is where a group is joined. ξ: configuration not given here. NMeF = CN[C@@H](Cc1ccccc1)C(=O)O; NMeV = CN[C@H](C(=O)O)C(C)C; ξNMeN = CNC(CC(N)=O)C(=O)O; NMeA = CN[C@@H](C)C(=O)O; ξNMeV = CNC(C(=O)O)C(C)C; Boc = CC(C)(C)OC(=O)*

Columns and labels:
Assay in all cases: inhibition of tumour cell growth, NCI panel, 48 h
HCC 2998 = test system: HCC 2998
MOLT-4 = test system: MOLT-4
SN12C = test system: SN12C
RPMI-8226 = test system: RPMI-8226
DMS-114 = test system: DMS-114
A549 = test system: A549
M14 = test system: M14
HL-60 = test system: HL-60
CAKI-1 = test system: CAKI-1
U-251 = test system: U-251
MDA-MB-435 = test system: MDA-MB-435
786-0 = test system: 786-0
SF-268 = test system: SF-268
ACHN = test system: ACHN
MDA-N = test system: MDA-N
HT-29 = test system: HT-29
UACC-257 = test system: UACC-257
NCI-H460 = test system: NCI-H460
COLO 205 = test system: COLO 205
SF-295 = test system: SF-295

C[C@H]1C/C=C/[C@H]2[C@@H]3O[C@]3(C)[C@@H](C)[C@H]3[C@H](Cc4ccccc4)NC(=O)[C@]32OC(=O)O/C=C/[C@@](C)(O)C1=O [CYTOCHALASIN E]
GI50 (HCC 2998): 0.138 µM (active) | GI50 (MOLT-4): 8.59 µM (inactive) | GI50 (SN12C): 3.16 µM (inactive) | GI50 (RPMI-8226): 0.556 µM (active) | GI50 (DMS-114): 0.0548 µM (active) | GI50 (A549): 0.0253 µM (active) | GI50 (M14): 0.0436 µM (active) | GI50 (HL-60): 0.0838 µM (active) | GI50 (CAKI-1): 0.0132 µM (active) | GI50 (U-251): 0.0188 µM (active) | GI50 (MDA-MB-435): 18.9 µM (inactive) | GI50 (786-0): 0.114 µM (active) | GI50 (SF-268): 0.0638 µM (active) | GI50 (ACHN): < 0.01 µM (active) | GI50 (MDA-N): 0.0231 µM (active) | GI50 (HT-29): 0.0194 µM (active) | GI50 (UACC-257): 0.263 µM (active) | GI50 (NCI-H460): 0.0161 µM (active)

COc1ccccc1/C=C1\CCC(CN(C)C)C1=O (stereo not drawn)
GI50 (HCC 2998): 5.21 µM (inactive) | GI50 (MOLT-4): 4.61 µM (inactive) | GI50 (SN12C): 2.48 µM (inactive) | GI50 (RPMI-8226): 2.05 µM (inactive) | GI50 (DMS-114): 2.75 µM (inactive) | GI50 (A549): 20.1 µM (inactive) | GI50 (M14): 3.64 µM (inactive) | GI50 (COLO 205): 2.25 µM (inactive) | GI50 (HL-60): 1.49 µM (inactive) | GI50 (CAKI-1): 5.6 µM (inactive) | GI50 (SF-295): 15.2 µM (inactive) | GI50 (U-251): 11.1 µM (inactive) | GI50 (MDA-MB-435): 8.83 µM (inactive) | GI50 (786-0): 2.16 µM (inactive) | GI50 (SF-268): 10.6 µM (inactive) | GI50 (ACHN): 8.02 µM (inactive) | GI50 (MDA-N): 4.09 µM (inactive) | GI50 (HT-29): 4.89 µM (inactive) | GI50 (UACC-257): 10.8 µM (inactive) | GI50 (NCI-H460): 19.6 µM (inactive)

COC(=O)[C@H](C)N(C)C(=O)C(CC(N)=O)N(C)C(=O)[C@H](Cc1ccccc1)N(C)C(=O)[C@@H]1CCCN1C(=O)[C@H](C(C)C)N(C)C(=O)C(C(C)C)N(C)C(=O)[C@@H](NC(=O)OC(C)(C)C)C(C)C (stereo partly drawn) (Boc-V[ξNMeV][NMeV]P[NMeF][ξNMeN][NMeA]-OMe)
GI50 (HCC 2998): > 50 µM (inactive) | GI50 (MOLT-4): 24.5 µM (inactive) | GI50 (SN12C): > 50 µM (inactive) | GI50 (RPMI-8226): > 5 µM (inactive) | GI50 (DMS-114): 16.8 µM (inactive) | GI50 (A549): > 50 µM (inactive) | GI50 (M14): > 50 µM (inactive) | GI50 (COLO 205): > 50 µM (inactive) | GI50 (HL-60): 12.1 µM (inactive) | GI50 (CAKI-1): > 50 µM (inactive) | GI50 (SF-295): > 50 µM (inactive) | GI50 (U-251): > 50 µM (inactive) | GI50 (MDA-MB-435): > 50 µM (inactive) | GI50 (786-0): > 50 µM (inactive) | GI50 (SF-268): 41.7 µM (inactive) | GI50 (ACHN): > 50 µM (inactive) | GI50 (MDA-N): > 50 µM (inactive) | GI50 (HT-29): > 50 µM (inactive) | GI50 (UACC-257): > 50 µM (inactive) | GI50 (NCI-H460): > 50 µM (inactive)

COC(=O)c1ccccc1OCc1cc(=O)oc2ccc(C)cc12
GI50 (HCC 2998): > 100 µM (inactive) | GI50 (MOLT-4): > 100 µM (inactive) | GI50 (SN12C): > 100 µM (inactive) | GI50 (RPMI-8226): > 63.4 µM (inactive) | GI50 (DMS-114): 89.3 µM (inactive) | GI50 (A549): 82.2 µM (inactive) | GI50 (M14): > 87.7 µM (inactive) | GI50 (COLO 205): > 100 µM (inactive) | GI50 (HL-60): > 100 µM (inactive) | GI50 (CAKI-1): 52.5 µM (inactive) | GI50 (SF-295): 28.2 µM (inactive) | GI50 (U-251): 14.4 µM (inactive) | GI50 (MDA-MB-435): > 100 µM (inactive) | GI50 (786-0): 39.1 µM (inactive) | GI50 (SF-268): 29.1 µM (inactive) | GI50 (ACHN): 63.2 µM (inactive) | GI50 (MDA-N): > 100 µM (inactive) | GI50 (HT-29): 49.5 µM (inactive) | GI50 (UACC-257): > 87.3 µM (inactive) | GI50 (NCI-H460): > 100 µM (inactive)

O=C(O)c1ccc(S(=O)(=O)c2ccccc2)c([N+](=O)[O-])c1
GI50 (HCC 2998): > 100 µM (inactive) | GI50 (MOLT-4): > 100 µM (inactive) | GI50 (SN12C): > 100 µM (inactive) | GI50 (RPMI-8226): > 100 µM (inactive) | GI50 (DMS-114): > 100 µM (inactive) | GI50 (A549): > 100 µM (inactive) | GI50 (M14): > 100 µM (inactive) | GI50 (COLO 205): > 100 µM (inactive) | GI50 (HL-60): > 100 µM (inactive) | GI50 (CAKI-1): > 100 µM (inactive) | GI50 (SF-295): > 100 µM (inactive) | GI50 (U-251): > 100 µM (inactive) | GI50 (786-0): > 100 µM (inactive) | GI50 (SF-268): > 100 µM (inactive) | GI50 (ACHN): > 100 µM (inactive) | GI50 (HT-29): > 100 µM (inactive) | GI50 (UACC-257): > 100 µM (inactive) | GI50 (NCI-H460): > 100 µM (inactive)

CCC(=O)N/N=C(\C=C\c1cccc(O)c1)c1sc(Nc2ccc(C)cc2[N+](=O)[O-])nc1C
GI50 (HCC 2998): > 100 µM (inactive) | GI50 (MOLT-4): > 100 µM (inactive) | GI50 (SN12C): > 100 µM (inactive) | GI50 (RPMI-8226): > 100 µM (inactive) | GI50 (DMS-114): > 100 µM (inactive) | GI50 (A549): > 100 µM (inactive) | GI50 (M14): > 100 µM (inactive) | GI50 (COLO 205): > 100 µM (inactive) | GI50 (HL-60): 43.4 µM (inactive) | GI50 (CAKI-1): > 100 µM (inactive) | GI50 (SF-295): 48.4 µM (inactive) | GI50 (U-251): > 100 µM (inactive) | GI50 (786-0): > 100 µM (inactive) | GI50 (SF-268): > 100 µM (inactive) | GI50 (ACHN): > 100 µM (inactive) | GI50 (HT-29): 18.6 µM (inactive) | GI50 (UACC-257): > 100 µM (inactive) | GI50 (NCI-H460): > 100 µM (inactive)

COC(=O)/C(C)=C(/CCC1(C)OCCO1)O[Si](C)(C)C
GI50 (HCC 2998): > 100 µM (inactive) | GI50 (MOLT-4): > 100 µM (inactive) | GI50 (SN12C): > 100 µM (inactive) | GI50 (RPMI-8226): > 100 µM (inactive) | GI50 (DMS-114): > 100 µM (inactive) | GI50 (A549): > 100 µM (inactive) | GI50 (M14): > 100 µM (inactive) | GI50 (COLO 205): > 100 µM (inactive) | GI50 (HL-60): > 100 µM (inactive) | GI50 (CAKI-1): > 100 µM (inactive) | GI50 (SF-295): > 100 µM (inactive) | GI50 (U-251): > 100 µM (inactive) | GI50 (786-0): > 100 µM (inactive) | GI50 (SF-268): > 100 µM (inactive) | GI50 (ACHN): > 100 µM (inactive) | GI50 (HT-29): > 100 µM (inactive) | GI50 (UACC-257): > 100 µM (inactive) | GI50 (NCI-H460): 47.1 µM (inactive)

CC(=O)NC(CC(C)C)C(=O)NC(Cc1ccccc1)C(=S)N1CCCC1 (stereo not drawn)
GI50 (HCC 2998): > 100 µM (inactive) | GI50 (MOLT-4): > 100 µM (inactive) | GI50 (SN12C): > 100 µM (inactive) | GI50 (RPMI-8226): > 100 µM (inactive) | GI50 (DMS-114): > 100 µM (inactive) | GI50 (A549): > 100 µM (inactive) | GI50 (M14): > 100 µM (inactive) | GI50 (COLO 205): > 100 µM (inactive) | GI50 (HL-60): > 100 µM (inactive) | GI50 (CAKI-1): > 100 µM (inactive) | GI50 (SF-295): > 100 µM (inactive) | GI50 (U-251): > 100 µM (inactive) | GI50 (786-0): > 100 µM (inactive) | GI50 (SF-268): > 100 µM (inactive) | GI50 (ACHN): > 100 µM (inactive) | GI50 (HT-29): > 100 µM (inactive) | GI50 (UACC-257): > 100 µM (inactive) | GI50 (NCI-H460): > 100 µM (inactive)

Oc1cc(C2OCCCO2)cc(O)c1O
GI50 (HCC 2998): > 100 µM (inactive) | GI50 (MOLT-4): > 100 µM (inactive) | GI50 (SN12C): > 100 µM (inactive) | GI50 (RPMI-8226): > 100 µM (inactive) | GI50 (DMS-114): > 100 µM (inactive) | GI50 (A549): > 100 µM (inactive) | GI50 (M14): > 100 µM (inactive) | GI50 (COLO 205): > 100 µM (inactive) | GI50 (HL-60): > 100 µM (inactive) | GI50 (CAKI-1): > 100 µM (inactive) | GI50 (SF-295): > 100 µM (inactive) | GI50 (U-251): > 100 µM (inactive) | GI50 (786-0): > 100 µM (inactive) | GI50 (SF-268): > 100 µM (inactive) | GI50 (ACHN): > 100 µM (inactive) | GI50 (HT-29): > 100 µM (inactive) | GI50 (UACC-257): > 100 µM (inactive) | GI50 (NCI-H460): > 100 µM (inactive)
